Measurements from patent US20100196512A1, “Treatment of Non-Oral Biological Tissue with Chlorine Dioxide” (priority 2009, published 2010).

What was measured:
[1] = tested on: Pseudomonas aeruginosa (PA) biofilm; experiment: Kill of PA biofilm grown on ceramic disks by chlorine dioxide solution; assay type: cell-based
Text: (§1) Chlorine dioxide treatment involves exposing micro-organisms to chlorine dioxide for a period of time. Treatment conditions, often called the “dose or dosage” of chlorine dioxide, can be determined by calculating the integral of the chlorine dioxide concentration as a function of time, C(t), over the treatment time of use:
(§2) In systems where the chlorine dioxide concentration is generally constant over the treatment time (e.g., varies by less than ±10% relative) or varies linearly over the treatment time, an average chlorine dioxide concentration may be calculated by averaging the starting and ending concentrations and then multiplying that average chlorine dioxide concentration during an exposure period by the time of exposure (Average Concentration X Time). Dose is commonly given in units of ppm-minutes.
(§3) A series of experiments were conducted to estimate the dose of chlorine dioxide needed to kill bacterial biofilms consisting of Pseudomonas aeruginosa (PA), methicillin resistant Staphylococcus aureus (MRSA), or a combination of both.
(§4) Bacterial biofilms were grown for between 7 and 10 days on non-porous ceramic disks in a spinning disk biofilm reactor. The reactors were inoculated with PA, MRSA, or a mixture of MRSA and PA bacteria to produce PA, MRSA, or mixed PA/MRSA biofilms respectively.
(§5) Chlorine dioxide solutions were produced at different nominal concentrations using ASEPTROL® S-Tab 10 tablets, and the exact concentrations were then measured using a Hach Model 2400 UV/Vis spectrophotometer in accordance with the manufacturer's instructions. Pairs of biofilm-containing disks were immersed for different times in solutions of different chlorine dioxide concentrations, neutralized with dilute sodium thiosulfate solution, and then plated to determine the number of surviving bacteria on each disk. Two untreated disks were also exposed to neutralizing solution and plated to determine the starting bacterial counts. In all tests, the baseline bacterial counts were in the range of 10^7 to 10^7.5 colony-forming units per disk (cfu/disk). A one log reduction refers to reducing the cfu/disk by one order of magnitude, e.g., a reduction from 10^7.1 cfu/disk to 10^6.1 cfu/disk. Accordingly, a substantially complete kill is achieved if the log reduction of bacteria is about 7 to 7.5.
(§6) The table summarizes the test conditions used in the different experiments, and presents the results in terms of log reduction of the different bacterial organisms. In the case of mixed PA/MRSA biofilms, results are given as total bacteria.

[2] = tested on: methicillin resistant Staphylococcus aureus (MRSA) biofilm; experiment: Kill of MRSA biofilm grown on ceramic disks by chlorine dioxide solution; assay type: cell-based
Text: as §1, §2, §3, §4, §5, §6

[3] = tested on: mixed PA/MRSA biofilm (total bacteria); experiment: Kill of mixed PA/MRSA biofilm grown on ceramic disks by chlorine dioxide solution; assay type: cell-based, Staphylococcus aureus and Pseudomonas aeruginosa; details: for Log Reduction in Organism Count: MRSA + PA biofilm, total bacteria
Text: as §1, §2, §3, §4, §5, §6

[O][Cl+][O-] [ClO2, chlorine dioxide]
Log Reduction in Organism Count ([1]; Sample 6, exposure 0.5 minutes, ClO2 200 ppm, 100 ppm-min): 5.9
Log Reduction in Organism Count ([1]; Sample 7, exposure 5.0 minutes, ClO2 43 ppm, […]-min): 5.7
Log Reduction in Organism Count ([1]; Sample 8, exposure 5.0 minutes, ClO2 187 ppm, 935 ppm-min): 7.5
Log Reduction in Organism Count ([1]; Sample 9, exposure 10.0 minutes, ClO2 37 ppm, 370 ppm-min): 7.5
Log Reduction in Organism Count ([1]; Sample 10, exposure 50.0 minutes, ClO2 35 ppm, 1750 ppm-min): 7.5
Log Reduction in Organism Count ([1]; Sample 11, exposure 50.0 minutes, ClO2 166 ppm, 8300 ppm-min): 7.5
dose for a kill of about 5 orders of magnitude (5 log) ([1]; see Sample 7): greater than 200 ppm-min
Log Reduction in Organism Count ([2]; Sample 1, exposure 1.0 minutes, ClO2 208 ppm, 208 ppm-min): 5.5
Log Reduction in Organism Count ([2]; Sample 2, exposure 5.0 minutes, ClO2 204 ppm, 1020 ppm-min): 7.1
Log Reduction in Organism Count ([2]; Sample 3 (second line), exposure 30.0 minutes, ClO2 40 ppm, 1200 ppm-min): 5.1
Log Reduction in Organism Count ([2]; Sample 3, exposure 10.0 minutes, ClO2 45 ppm, 450 ppm-min): 5.5
Log Reduction in Organism Count ([2]; Sample 4, exposure 30.0 minutes, ClO2 175 ppm, 5250 ppm-min): 7.1
dose for a kill of about 5 orders of magnitude (5 log) ([2]; see Sample 1): greater than 200 ppm-min
Log Reduction in Organism Count ([3]; Sample 12, exposure 10.0 minutes, ClO2 52 ppm, 520 ppm-min): 5.5
Log Reduction in Organism Count ([3]; Sample 13, exposure 30.0 minutes, ClO2 52 ppm, 1560 ppm-min): 7.4
Log Reduction in Organism Count ([3]; Sample 14, exposure 1.0 minutes, ClO2 181 ppm, 181 ppm-min): 5.1
Log Reduction in Organism Count ([3]; Sample 15, exposure 5.0 minutes, ClO2 160 ppm, 800 ppm-min): 7.4
Log Reduction in Organism Count ([3]; Sample 16, exposure 30.0 minutes, ClO2 160 ppm, 4800 ppm-min): 7.4
dose for a kill of about 5 orders of magnitude (5 log) ([3]; mixed PA/MRSA biofilm, see Sample 12): greater than 200 ppm-min
